Measured values: ChEMBL document CHEMBL4152359, “Synthesis and biological evaluation of novel heteroring-annulated pyrrolino-tetrahydroberberine analogues as antioxidant agents” (Bioorg Med Chem, 2018)
Values belong to the molecule of their own block, whether it stands above or below them. The source made the active and inactive calls. The calls are words filed in the database; no cut-off is given here.

Legend:
NCTC-2544 [1] = experiment: Antioxidant activity in human NCTC-2544 cells assessed as reduction in H2O2-induced ROS level at 30 uM preincubated up to 3 hrs followed by H2O2 addition measured for 30 mins by DCFH-DA staining based fluorescence assay; type: functional, cell-based
NCTC-2544 [2] = experiment: Antioxidant activity in human NCTC-2544 cells assessed as reduction in H2O2-induced ROS level at 30 uM preincubated with cells followed by H2O2 addition measured after 24 hrs by DCFH-DA staining based fluorescence assay; type: functional
NCTC-2544 [3] = experiment: Cytotoxicity against human NCTC-2544 cells assessed as reduction in cell viability at 30 uM up to 72 hrs by WST8 assay; type: cell-based; details: nctc-2544, 72 h
[4] = Antioxidant activity assessed as trolox equivalents of AAPH-induced radical scavenging activity by ORAC-FL assay; type: functional
DNA = experiment: Antioxidant activity assessed as protection against ferrous ions and dioxygen-induced free radical-mediated DNA strand break in pEMBL8 supercoiled DNA preincubated with DNA followed by (NH4)2Fe(SO4)2.6H2O addition measured after 6 mins by ethidium bromide staining based agarose gel electrophoresis method; type: functional
NCTC-2544 [5] = experiment: Cytotoxicity against human NCTC-2544 cells assessed as reduction in cell viability at 30 uM at 72 hrs by WST8 assay relative to control; type: cell-based; details: nctc-2544, 72 h
NCTC-2544 [6] = experiment: Antioxidant activity in human NCTC-2544 cells assessed as reduction in intracellular oxidation level at 30 uM after 1 hr by DCFH-DA staining based fluorescence assay; type: functional, cell-based
NCTC-2544 [7] = experiment: Antioxidant activity in human NCTC-2544 cells assessed as reduction in intracellular oxidation level at 30 uM after 24 hrs by DCFH-DA staining based fluorescence assay; type: functional, cell-based
NCTC-2544 [8] = experiment: Antioxidant activity in human NCTC-2544 cells assessed as reduction in intracellular oxidation level at 30 uM after 3 hrs by DCFH-DA staining based fluorescence assay; type: functional, cell-based

- EC50 (DNA): 683 µM
Structure (SMILES): COC(=O)NN1C(C)=C(C(=O)OC)C2c3ccc(OC)c(OC)c3CN3CCc4cc5c(cc4C231)OCO5 (centres undefined)
- Activity (NCTC-2544 [1]): Active
- Activity (NCTC-2544 [2]): inactive
- Activity (NCTC-2544 [3]): Non-Toxic
- Activity [4]: 855 equiv

- EC50 (DNA): 196 µM
Structure (SMILES): COc1ccc2c(c1OC)CN1CCc3cc4c(cc3C13C2C(P(=O)(OC)OC)=C(C)N3NC(=O)OC(C)(C)C)OCO4 (centres undefined)
- Activity (NCTC-2544 [1]): Active
- Activity (NCTC-2544 [2]): inactive
- Activity (NCTC-2544 [5]): 35%
- Activity [4]: 1130 equiv

- EC50 (DNA): 63 µM
Structure (SMILES): COC(=O)C1=C(C)N(NC(=O)Nc2ccccc2)C23c4cc5c(cc4CCN2Cc2c(ccc(OC)c2OC)C13)OCO5 (centres undefined)
- Activity (NCTC-2544 [1]): Active
- Activity (NCTC-2544 [2]): inactive
- Activity (NCTC-2544 [3]): Non-Toxic
- Activity [4]: 1160 equiv

- EC50 (DNA): 119 µM
Structure (SMILES): COC(=O)C1=C(C)N(NC(=O)OC(C)(C)C)C23c4cc5c(cc4CCN2Cc2c(ccc(OC)c2OC)C13)OCO5 (centres undefined)
- Activity (NCTC-2544 [1]): Active
- Activity (NCTC-2544 [2]): inactive
- Activity (NCTC-2544 [3]): Non-Toxic
- Activity [4]: 1470 equiv

- EC50 (DNA): 407 µM
Structure (SMILES): CCOC(=O)NN1C(C)=C(C(=O)OCC)C2c3ccc(OC)c(OC)c3CN3CCc4cc5c(cc4C231)OCO5 (centres undefined)
- Activity (NCTC-2544 [1]): Active
- Activity (NCTC-2544 [6]): Active
- Activity (NCTC-2544 [2]): inactive
- Activity (NCTC-2544 [3]): Non-Toxic
- Activity [4]: 955 equiv

Structure (SMILES): COc1ccc2c(c1OC)CN1CCc3cc4c(cc3C1C2)OCO4 (centres undefined) [TETRAHYDROBERBERINE]
- Activity (NCTC-2544 [1]): Active
- Activity (NCTC-2544 [2]): inactive
- Activity [4]: 1580 equiv
- EC50 (DNA): 93 µM
- Activity (NCTC-2544 [7]): inactive

- EC50 (DNA): 140 µM
Structure (SMILES): COc1ccc2c(c1OC)CN1CCc3cc4c(cc3C13C2C(C(=O)Nc1ccccc1)=C(C)N3NC(=O)Nc1ccccc1)OCO4 (centres undefined)
- Activity (NCTC-2544 [1]): Active
- Activity (NCTC-2544 [2]): inactive
- Activity (NCTC-2544 [3]): Non-Toxic
- Activity [4]: 185 equiv

- EC50 (DNA): 74 µM
Structure (SMILES): CCOC(=O)C1=C(C)N(NC(=O)OC(C)(C)C)C23c4cc5c(cc4CCN2Cc2c(ccc(OC)c2OC)C13)OCO5 (centres undefined)
- Activity (NCTC-2544 [1]): Active
- Activity (NCTC-2544 [6]): Active
- Activity (NCTC-2544 [2]): 37%
- Activity (NCTC-2544 [3]): Non-Toxic
- Activity [4]: 1560 equiv
- Activity (NCTC-2544 [8]): Active
- Activity (NCTC-2544 [7]): Active
